Assay results from patent EP2966448B1, “METHOD FOR THE PREDICTION OR PROGNOSIS OF THE RESPONSE OF A HUMAN SUBJECT SUFFERING FROM CANCER TO TREATMENT WITH AN ANTAGONIST OF THE NK1 RECEPTOR” (priority 2013, dated 2014).
Where two headings read alike, the source gives them in different places.

Key:
[1] = tested on: human primary tumor cells; assay: Inhibition of primary tumor cell cultures vs absence or presence of ERK  protein (Example 3; tumor type per table line); assay type: cell-based; conditions: for Percentage of inhibition of cell cultures: 100 micromolar
Description: (§1) Cell cultures. […] Briefly, small pieces of the tumors were digested into a hyaluronidase solution (Sigma-Aldrich, USA) at a concentration of 1 mg/ml during 15 minutes at 37°C, and then they were treated with 6 mg/ml of collagenase type IV (Invitrogen) during 2 hours at 37°C. Consecutively, cells were washed, and resuspended in the DMEM culture medium with high concentration of glucose (Dulbecco's Modified Eagle's Medium, Invitrogen) supplemented with 1% of antibiotics-antimycotics (Invitrogen) and with 1% of sodium pyruvate (Invitrogen), and the cells were seeded in culture slides at a concentration of 10.000 cells per square centimeter. When cells reached confluence, the adherent cells were separated using sterile trypsin at 0,5% (Invitrogen) and they were used among passages 3 and 9. For the assays shown next, tumor cells were seeded on slides at a concentration of 25.000 cells per well. A total of 6 wells containing the tumor cells were used as survival control. […] All the cultures were kept during 48 hours and later on recollected for their analysis.
Consecutively, the cells were placed in cultures in the presence of several antagonists of the NK1 receptor.
In each case it was determined the presence or absence of the downstream effector in the MAP Kinases ERK pathway.
To determine the presence of the ERK protein, it was performed a Western Blot technique, using as primary antibody: Phospho-p44/42 MAPK (Erk1/2) (Thr202/Tyr204) (D13.14.4E) XP® Rabbit mAb (4370, Cell Signalling). To determine the presence of the MEK protein, it was performed the Western Blot technique, using as primary antibody Phospho-MEK1/2 (Ser217/221) (9121, Cell Signalling).
The antibody against NK1 receptor (Table 21) was used at 1/50 concentration. The percentages of inhibition are expressed in percentages of variation in relation to control ± standard deviation.

[2] = tested on: human primary tumor cells; assay: Inhibition of primary tumor cell cultures vs amplification of the gene encoding the NK1 receptor (Example 6; tumor type per table line); assay type: cell-based; conditions: for Percentage of inhibition of cell cultures: 100 micromolar
Description: as §1
The presence or absence of the amplification of the gene encoding for the NK1 receptor was determined, and then the cells were cultured in the presence of several antagonists of the NK1 receptor.
For each case, the presence or absence of amplification of the gene encoding for the NK1 receptor was determined.
In order to determine the presence of the amplification (increase in the number of copies) of the gene encoding the NK1 receptor (TAC1R), it was used the comparative genomic hybridization technique (CGH Array). Firstly genomic DNA was extracted from each case. Later, it was performed the marking and hybridization of the DNA of each sample together with DNA of a commercial reference without genomic alterations (from masculine or feminine sex, depending on the gender of the patient from whom the samples were obtained). The Array is Sureprint G3 Human CGH Microarray from the company Agilent was used, with an average separation between probes of 5.3Kb and 4.6Kb for the genes RefSeq. The reading of the microarray was done with the DNA Microarray Scanner G2565CA from Agilent, at a resolution of 3 µm. The analysis of the results was performed with the software Cytogenomics v 2.0.6.0 from Agilent with ADM-2: 6.0; Centralization: ON (Threshold: 6.0, Bin size: 10); Fuzzy zero: ON; Aberration filters: ON (minProbes=5 and minAvgAbsLopRatio= 0,5); Feature Level Filters : ON. The genomic coordinates are coincident with the NCBI36genome (hg18). Cases were distributed in two groups: Group I for those cases without the amplification of the gene encoding the NK1 receptor (locus 2p13.1-p12), and Group II for those cases with amplification of the gene encoding the NK1receptor (locus 2p13.1-p12).
The antibody against NK1 receptor (Table 36) was used at 1/50 concentration. The percentages of inhibition are expressed in percentages of variation in relation to control ± standard deviation.

Endometrium carcinoma = assay: cells; conditions: Homo sapiens, 1 micromolar
Description: (§2) Cell cultures. To obtain tumor cells from human primary tumors we used the method described in De Bari et al. (De Bari et al. 2001). Briefly, small pieces of the tumors were digested into a hyaluronidase solution (Sigma-Aldrich, USA) at a concentration of 1 mg/ml during 15 minutes at 37°C, and then they were treated with 6 mg/ml of collagenase type IV (Invitrogen) during 2 hours at 37°C. Consecutively, cells were washed, and resuspended in the DMEM culture medium with high concentration of glucose (Dulbecco's Modified Eagle's Medium, Invitrogen) supplemented with 1% of antibiotics-antimycotics (Invitrogen) and with 1% of sodium pyruvate (Invitrogen), and the cells were seeded in culture slides at a concentration of 10.000 cells per square centimeter. When cells reached confluence, the adherent cells were separated using sterile trypsin at 0,5% (Invitrogen) and they were used among passages 3 and 9. For the assays shown next, tumor cells were seeded on slides at a concentration of 25.000 cells per well. A total of 6 wells containing the tumor cells were used as survival control. […] All the cultures were kept during 48 hours and later on recollected for their analysis.
(§3) Immunohistochemistry techniques. The presence of NK1 receptors was also analyzed using immunohistochemistry techniques. Briefly, a sample of each of the cultures of the cell lines used in the present invention, was centrifuged (5 minutes at 1.500 rpm) and the pellet obtained was dehydrated using increasing concentrations of ethanol and, finally, xylol. Then, said dehydrated samples were embedded in paraffin, creating a block of cells. Such paraffin blocks were cut with a microtome at 5 microns thickness, and were placed on microscope slides adequate to perform immunohistochemistry techniques. Consecutively, they were de-paraffinized by immersing them in xylol, to be finally hydrated using a solution containing decreasing concentrations of ethanol, and finally submerged them into water. […] After this, the samples were left to cool down at room temperature for 10 minutes. The endogenous peroxidase activity was blocked with 3% peroxide of hydrogen for 30 minutes at room temperature. After washing the samples with 0.05 M of Tris buffer, they were incubated with 10% non-immune pork serum at for 30 minutes at room temperature. To analyze the expression of NK1 receptors, the cellular samples were incubated in the presence of anti-NK1 antibodies (S8305, Sigma-Aldrich) diluted 1:1000, overnight at 4°C. Afterwards, the samples were washed in Tris buffer 0.05 M at room temperature. The next step was the addition of Envision System-HRP (Dako) reagents for 30 minutes at room temperature. Then, the samples were washed again in Tris buffer 0.05 M and the immunoreactivity was visualized through light microscopy with a chromogenic solution containing 3,3'-Diaminobenzidine (DAB+; Dako, USA). To differentiate the cell nuclei, they were slightly stained with hematoxylin. As negative control, it was used samples not incubated with the primary antibody anti-NK1, which was replaced by non-immune serum. All the samples were evaluated.
(§4) To value the immunostaining in each of the cases six cuts were performed to be analyzed by the immunohistochemistry technique. In each of the six cuts, it was counted cells in 20 fields (magnification 400x) using an Olympus microscope (model CX31). In each field it was counted the total number of cells and the number of cells presenting immunostaining, calculating afterwards the percentage of cells which presented immunostaining.

Prostate carcinoma = assay: cells; conditions: Homo sapiens, 1 micromolar
Description: as §2, §3, §4

[3] = read-out: Percentage of inhibition of cell cultures, NK1 receptor immunostaining Group 1 (less than 20% of the cells)
[4] = read-out: Percentage of inhibition of cell cultures, NK1 receptor immunostaining Group 2 (20-80% of the cells)
[5] = read-out: Percentage of inhibition of cell cultures, NK1 receptor immunostaining Group 3 (more than 80% of the cells)
[6] = read-out: Percentage of inhibition of cell cultures, NK1 receptor immunostaining Intensity grade 1
[7] = read-out: Percentage of inhibition of cell cultures, NK1 receptor immunostaining Intensity grade 2
[8] = read-out: Percentage of inhibition of cell cultures, NK1 receptor immunostaining Intensity grade 3

## Cc1cc(F)ccc1[C@H]1CNCCN1C(=O)N(C)[C@H](C)c1cc(C(F)(F)F)cc(C(F)(F)F)c1 [Vestipitant]
[1]; Lung carcinoma (non small cell lung carcinoma), cases with presence of ERK
  Percentage of inhibition of cell cultures: 95±5 percentage
[1]; Lung carcinoma (non small cell lung carcinoma), cases without presence of ERK
  Percentage of inhibition of cell cultures: 26±2 percentage
[1]; Lung carcinoma (small cell lung carcinoma), cases with presence of ERK
  Percentage of inhibition of cell cultures: 96±6 percentage
[1]; Lung carcinoma (small cell lung carcinoma), cases without presence of ERK
  Percentage of inhibition of cell cultures: 27±4 percentage
[1]; Melanoma (Nodular Melanoma), cases with presence of ERK
  Percentage of inhibition of cell cultures: 94±5 percentage
[1]; Melanoma (Nodular Melanoma), cases without presence of ERK
  Percentage of inhibition of cell cultures: 25±3 percentage
[1]; Non Hodgkin Lymphoma B (diffuse B cell lymphoma), cases with presence of ERK
  Percentage of inhibition of cell cultures: 96±3 percentage
[1]; Non Hodgkin Lymphoma B (diffuse B cell lymphoma), cases without presence of ERK
  Percentage of inhibition of cell cultures: 24±4 percentage
[1]; Non Hodgkin Lymphoma T (diffuse T cell lymphoma), cases with presence of ERK
  Percentage of inhibition of cell cultures: 92±4 percentage
[1]; Non Hodgkin Lymphoma T (diffuse T cell lymphoma), cases without presence of ERK
  Percentage of inhibition of cell cultures: 25±2 percentage
[1]; Ovarian carcinoma (Adenocarcinoma), cases with presence of ERK
  Percentage of inhibition of cell cultures: 95±5 percentage
[1]; Ovarian carcinoma (Adenocarcinoma), cases without presence of ERK
  Percentage of inhibition of cell cultures: 24±2 percentage
[1]; Pancreatic carcinoma (Adenocarcinoma), cases with presence of ERK
  Percentage of inhibition of cell cultures: 93±4 percentage
[1]; Pancreatic carcinoma (Adenocarcinoma), cases without presence of ERK
  Percentage of inhibition of cell cultures: 24±34 percentage
[1]; Prostate carcinoma, cases with presence of ERK
  Percentage of inhibition of cell cultures: 94±4 percentage
[1]; Prostate carcinoma, cases without presence of ERK
  Percentage of inhibition of cell cultures: 22±3 percentage
[1]; Renal cell carcinoma (clear cell renal cell carcinoma), cases with presence of ERK
  Percentage of inhibition of cell cultures: 92±2 percentage
[1]; Renal cell carcinoma (clear cell renal cell carcinoma), cases without presence of ERK
  Percentage of inhibition of cell cultures: 25±2 percentage
[1]; Thyroid carcinoma (follicular carcinoma), cases with presence of ERK
  Percentage of inhibition of cell cultures: 94±4 percentage
[1]; Thyroid carcinoma (follicular carcinoma), cases without presence of ERK
  Percentage of inhibition of cell cultures: 25±3 percentage
[1]; Thyroid carcinoma (papillary carcinoma), cases with presence of ERK
  Percentage of inhibition of cell cultures: 96±3 percentage
[1]; Thyroid carcinoma (papillary carcinoma), cases without presence of ERK
  Percentage of inhibition of cell cultures: 26±4 percentage
[1]; Undifferentiated Pleomorphic Sarcoma (malignant fibrous histiocytoma grade 3), cases with presence of ERK
  Percentage of inhibition of cell cultures: 93±4 percentage
[1]; Undifferentiated Pleomorphic Sarcoma (malignant fibrous histiocytoma grade 3), cases without presence of ERK
  Percentage of inhibition of cell cultures: 26±2 percentage
[1]; Urinary bladder carcinoma (transitional cell carcinoma), cases with presence of ERK
  Percentage of inhibition of cell cultures: 97±5 percentage
[1]; Urinary bladder carcinoma (transitional cell carcinoma), cases without presence of ERK
  Percentage of inhibition of cell cultures: 24±5 percentage
[1]; cancer cell cultures that show more presence of ERK, compared, non-peptidic antagonists 100 micromolar, antibody 1/50
  inhibition of cell proliferation: higher inhibition
[2]; Breast carcinoma (ductal adenocarcinoma), Cases with amplification of the gene that encodes for the NK1 receptor
  Percentage of inhibition of cell cultures: 94±6 percentage
[2]; Breast carcinoma (ductal adenocarcinoma), Cases without amplification of the gene that encodes for the NK1 receptor
  Percentage of inhibition of cell cultures: 24±3 percentage
[2]; Burkitt Lymphoma, Cases with amplification of the gene that encodes for the NK1 receptor
  Percentage of inhibition of cell cultures: 97±5 percentage
[2]; Burkitt Lymphoma, Cases without amplification of the gene that encodes for the NK1 receptor
  Percentage of inhibition of cell cultures: 23±5 percentage
[2]; Carcinoma of the uterine cervix (Squamous cell carcinoma), Cases with amplification of the gene that encodes for the NK1 receptor
  Percentage of inhibition of cell cultures: 94±6 percentage
[2]; Carcinoma of the uterine cervix (Squamous cell carcinoma), Cases without amplification of the gene that encodes for the NK1 receptor
  Percentage of inhibition of cell cultures: 26±6 percentage
[2]; Colon carcinoma (Adenocarcinoma), Cases with amplification of the gene that encodes for the NK1 receptor
  Percentage of inhibition of cell cultures: 93±3 percentage
[2]; Colon carcinoma (Adenocarcinoma), Cases without amplification of the gene that encodes for the NK1 receptor
  Percentage of inhibition of cell cultures: 24±4 percentage
[2]; Endometrium carcinoma, Cases with amplification of the gene that encodes for the NK1 receptor
  Percentage of inhibition of cell cultures: 95±5 percentage
[2]; Endometrium carcinoma, Cases without amplification of the gene that encodes for the NK1 receptor
  Percentage of inhibition of cell cultures: 23±5 percentage
[2]; Gastric carcinoma (Adenocarcinoma), Cases with amplification of the gene that encodes for the NK1 receptor
  Percentage of inhibition of cell cultures: 94±4 percentage
[2]; Gastric carcinoma (Adenocarcinoma), Cases without amplification of the gene that encodes for the NK1 receptor
  Percentage of inhibition of cell cultures: 25±5 percentage
[2]; Glioma (astrocytoma), Cases with amplification of the gene that encodes for the NK1 receptor
  Percentage of inhibition of cell cultures: 94±7 percentage
[2]; Glioma (astrocytoma), Cases without amplification of the gene that encodes for the NK1 receptor
  Percentage of inhibition of cell cultures: 26±5 percentage
[2]; Lung carcinoma (non small cell lung carcinoma), Cases with amplification of the gene that encodes for the NK1 receptor
  Percentage of inhibition of cell cultures: 93±5 percentage
[2]; Lung carcinoma (non small cell lung carcinoma), Cases without amplification of the gene that encodes for the NK1 receptor
  Percentage of inhibition of cell cultures: 24±4 percentage
[2]; Lung carcinoma (small cell lung carcinoma), Cases with amplification of the gene that encodes for the NK1 receptor
  Percentage of inhibition of cell cultures: 94±4 percentage
[2]; Lung carcinoma (small cell lung carcinoma), Cases without amplification of the gene that encodes for the NK1 receptor
  Percentage of inhibition of cell cultures: 25±3 percentage
[2]; Melanoma (Nodular Melanoma), Cases with amplification of the gene that encodes for the NK1 receptor
  Percentage of inhibition of cell cultures: 96±5 percentage
[2]; Melanoma (Nodular Melanoma), Cases without amplification of the gene that encodes for the NK1 receptor
  Percentage of inhibition of cell cultures: 24±6 percentage
[2]; Non Hodgkin Lymphoma B (diffuse B cell lymphoma), Cases with amplification of the gene that encodes for the NK1 receptor
  Percentage of inhibition of cell cultures: 94±6 percentage
[2]; Non Hodgkin Lymphoma B (diffuse B cell lymphoma), Cases without amplification of the gene that encodes for the NK1 receptor
  Percentage of inhibition of cell cultures: 27±5 percentage
[2]; Non Hodgkin Lymphoma T (diffuse T cell lymphoma), Cases with amplification of the gene that encodes for the NK1 receptor
  Percentage of inhibition of cell cultures: 95±4 percentage
[2]; Non Hodgkin Lymphoma T (diffuse T cell lymphoma), Cases without amplification of the gene that encodes for the NK1 receptor
  Percentage of inhibition of cell cultures: 29±3 percentage
[2]; Ovarian carcinoma(Adenocarcinoma), Cases with amplification of the gene that encodes for the NK1 receptor
  Percentage of inhibition of cell cultures: 96±5 percentage
[2]; Ovarian carcinoma(Adenocarcinoma), Cases without amplification of the gene that encodes for the NK1 receptor
  Percentage of inhibition of cell cultures: 25±4 percentage
[2]; Pancreatic carcinoma (Adenocarcinoma), Cases with amplification of the gene that encodes for the NK1 receptor
  Percentage of inhibition of cell cultures: 93±4 percentage
[2]; Pancreatic carcinoma (Adenocarcinoma), Cases without amplification of the gene that encodes for the NK1 receptor
  Percentage of inhibition of cell cultures: 25±3 percentage
[2]; Prostate carcinoma, Cases with amplification of the gene that encodes for the NK1 receptor
  Percentage of inhibition of cell cultures: 96±6 percentage
[2]; Prostate carcinoma, Cases without amplification of the gene that encodes for the NK1 receptor
  Percentage of inhibition of cell cultures: 25±6 percentage
[2]; Renal cell carcinoma (clear cell renal cell carcinoma), Cases with amplification of the gene that encodes for the NK1 receptor
  Percentage of inhibition of cell cultures: 94±5 percentage
[2]; Renal cell carcinoma (clear cell renal cell carcinoma), Cases without amplification of the gene that encodes for the NK1 receptor
  Percentage of inhibition of cell cultures: 27±4 percentage
[2]; Thyroid carcinoma (follicular carcinoma), Cases with amplification of the gene that encodes for the NK1 receptor
  Percentage of inhibition of cell cultures: 94±6 percentage
[2]; Thyroid carcinoma (follicular carcinoma), Cases without amplification of the gene that encodes for the NK1 receptor
  Percentage of inhibition of cell cultures: 25±5 percentage
[2]; Thyroid carcinoma (papillary carcinoma), Cases with amplification of the gene that encodes for the NK1 receptor
  Percentage of inhibition of cell cultures: 97±4 percentage
[2]; Thyroid carcinoma (papillary carcinoma), Cases without amplification of the gene that encodes for the NK1 receptor
  Percentage of inhibition of cell cultures: 26±3 percentage
[2]; Undifferentiated Pleomorphic Sarcoma (malignant fibrous histiocytoma grade 3), Cases with amplification of the gene that encodes for the NK1 receptor
  Percentage of inhibition of cell cultures: 95±7 percentage
[2]; Undifferentiated Pleomorphic Sarcoma (malignant fibrous histiocytoma grade 3), Cases without amplification of the gene that encodes for the NK1 receptor
  Percentage of inhibition of cell cultures: 27±4 percentage
[2]; Urinary bladder carcinoma (transitional cell carcinoma), Cases with amplification of the gene that encodes for the NK1 receptor
  Percentage of inhibition of cell cultures: 95±5 percentage
[2]; Urinary bladder carcinoma (transitional cell carcinoma), Cases without amplification of the gene that encodes for the NK1 receptor
  Percentage of inhibition of cell cultures: 24±5 percentage
[2]; cancer cell cultures which show amplification in the genomic region encoding the NK1 receptor, compared, non-peptidic antagonists 100 micromolar, antibody 1/50
  inhibition of cell proliferation: higher inhibition
Endometrium carcinoma; [3]
  inhibition at 1 µM: 15 ± 3%
Endometrium carcinoma; [4]
  inhibition at 1 µM: 44 ± 3%
Endometrium carcinoma; [5]
  inhibition at 1 µM: 93 ± 6%
Endometrium carcinoma; [6]
  inhibition at 1 µM: 18 ± 2%
Endometrium carcinoma; [7]
  inhibition at 1 µM: 47 ± 4%
Endometrium carcinoma; [8]
  inhibition at 1 µM: 93 ± 5%
Prostate carcinoma; [3]
  inhibition at 1 µM: 17 ± 4%
Prostate carcinoma; [4]
  inhibition at 1 µM: 46 ± 3%
Prostate carcinoma; [5]
  inhibition at 1 µM: 92 ± 5%
Prostate carcinoma; [6]
  inhibition at 1 µM: 18 ± 4%
Prostate carcinoma; [7]
  inhibition at 1 µM: 47 ± 4%
Prostate carcinoma; [8]
  inhibition at 1 µM: 92 ± 4%
